In PubChem BioAssay (NCI):
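Grown in 96-well plates, cells were treated for 48 hours with each compound at five concentrations. Insufficient inhibition: endpoint recorded as highest concentration tested. GI50 = concentration required for 50% inhibition of growth. TGI: concentration producing complete growth inhibition.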

How the values were obtained:
Test in all cases: growth of human tumour cells (NCI), 48 h
UO-31 renal = test system: UO-31 renal
OVCAR-5 ovarian = test system: OVCAR-5 ovarian
SK-OV-3 ovarian = test system: SK-OV-3 ovarian
ACHN renal = test system: ACHN renal
MOLT-4 leukemia = test system: MOLT-4 leukemia
SNB-19 CNS = test system: SNB-19 CNS
SK-MEL-5 melanoma = test system: SK-MEL-5 melanoma
IGROV1 ovarian = test system: IGROV1 ovarian
SNB-75 CNS = test system: SNB-75 CNS
DU-145 prostate = test system: DU-145 prostate

Row | Structure (SMILES) | GI50 (UO-31 renal) [µM] | TGI (UO-31 renal) [µM] | GI50 (OVCAR-5 ovarian) [µM] | TGI (OVCAR-5 ovarian) [µM] | GI50 (SK-OV-3 ovarian) [µM] | TGI (SK-OV-3 ovarian) [µM] | GI50 (ACHN renal) [µM] | TGI (ACHN renal) [µM] | GI50 (MOLT-4 leukemia) [µM] | TGI (MOLT-4 leukemia) [µM] | GI50 (SNB-19 CNS) [µM] | TGI (SNB-19 CNS) [µM] | GI50 (SK-MEL-5 melanoma) [µM] | GI50 (IGROV1 ovarian) [µM] | TGI (IGROV1 ovarian) [µM] | GI50 (SNB-75 CNS) [µM] | TGI (SNB-75 CNS) [µM] | TGI (SK-MEL-5 melanoma) [µM] | GI50 (DU-145 prostate) [µM] | TGI (DU-145 prostate) [µM]
1 | NC1CCCCC1N.O=[Se]([O-])[O-].[Pt+4] (stereo not drawn) | 1.05 | 16.7 | 1.83 | 27.9 | 27.8 | > 100 | 0.653 | > 52.4 | 0.0775 | > 100 | 1.32 | > 100 | 0.713 | 2.11 | > 46 | 66.3 | > 100 |  |  | 
2 | CCOC(=O)C(N=C(c1ccccc1)c1ccccc1)N(C(=O)OC(C)(C)C)C(=O)OC(C)(C)C (stereo not drawn) |  | > 100 |  | > 100 |  | > 100 |  | > 100 |  | > 100 |  | > 100 |  |  | > 100 |  | > 100 | > 100 |  | 
3 | Clc1ccc(Nc2ccnc(N3CCN(c4ccnc5cc(Cl)ccc45)CC3)n2)cc1 | 1.28 | 5.61 |  |  | 3.28 | 44.7 |  |  | 2.94 | 9.97 | 3.68 | 74.5 | 1.81 | 3.82 | > 100 | 1.79 | 7.29 | 3.66 | 4.8 | 31.6
4 | COc1ccc2cc(C(=O)/C=C/c3ccc(N(C)C)cc3)ccc2c1 | > 100 | > 100 |  |  | > 100 | > 100 | 81.4 | > 100 | > 100 | > 100 | > 100 | > 100 | 36.9 | 47.8 | > 100 | > 100 | > 100 | 72.8 | > 100 | > 100
5 | CC(=O)Nc1c(I)c(NC(C)=O)c(I)c(C(=O)O)c1I | > 100 | > 100 | > 100 | > 100 | > 100 | > 100 | > 100 | > 100 | > 100 | > 100 |  |  | > 100 | > 100 | > 100 |  |  | > 100 | > 100 | > 100
6 | CCOC(=O)Cc1csc(Nc2ccc(OCC)cc2)n1 |  | > 100 |  |  |  |  |  | > 100 |  | > 100 |  | > 100 |  |  | > 100 |  | > 100 |  |  | 
7 | CCCCCCn1c(-c2ccc(C(=O)O/N=C(\N)c3ccc4ccccc4c3)cc2)nc(-c2ccccc2)c1-c1ccccc1 | 2.17 | > 100 | > 100 | > 100 | 25.9 | > 90.9 |  |  | > 100 | > 100 | 22.3 | > 100 | > 100 |  |  | 2.18 | 20.1 | > 100 | > 100 | > 100
8 | O=C(OC1CCC2OOC1O2)c1ccc([N+](=O)[O-])cc1 (stereo not drawn) |  | > 100 |  | > 100 |  | > 100 |  | > 100 |  | > 100 |  | > 100 |  |  | > 100 |  | > 100 | > 100 |  | 
9 | COc1ccc(Sc2nc3cc(N)cc(N)c3nc2-c2ccccc2)cc1 | > 100 | > 100 | > 100 | > 100 | 32.9 | > 100 |  |  | 4.19 | > 100 | > 100 | > 100 | 24 |  |  |  |  | > 100 | 14.5 | > 100
10 | CCOC(=O)NC/C=C/COC1CCCCO1 (stereo not drawn) |  | > 100 |  |  |  | > 100 |  | > 100 |  | > 100 |  | > 100 |  |  | > 100 |  | > 100 | > 100 |  | 
11 | Cc1cc(C)n(-c2ccnc3cc(Cl)ccc23)n1 |  | > 100 |  | > 100 |  | > 100 |  | > 100 |  | > 100 |  | > 100 |  |  | > 100 |  | > 100 | > 100 |  | 
12 | COc1cc2c(cc1OC)CC(=O)Nc1cc(OC)c(OC)cc1CC2 |  | > 100 |  | > 100 |  | > 100 |  | > 100 |  | > 100 |  | > 100 |  |  | > 100 |  | > 100 | 71 |  | 
13 | CCCCNC(=O)C1C(=O)N(CCCC)C(=O)/C1=N\N (stereo not drawn) |  | > 100 |  | > 100 |  | > 100 |  | > 100 |  | > 100 |  | > 100 |  |  | > 100 |  | > 100 | > 100 |  | 
14 | CCCCCCCCCCCC(=O)N1CCN(C(C)=O)CC1 | 18.7 | 42.6 | 21.2 | 48.5 | 20.7 | 39.7 | 62.1 | > 100 | 20.8 | 47.8 | 19.3 | 40 | 23.7 | 18.8 | 42.5 |  |  | 38.9 | 35 | > 100
15 | CC(C)(C)[Si](C)(C)OC1[C@@H](O[Si](C)(C)C(C)(C)C)[C@@H](CNC(=O)NC(=O)CF)O[C@H]1n1cnc2c(NC(=O)Nc3ccccc3)ncnc21 (stereo partly drawn) | 11.2 | > 50 | 15.9 | > 50 | > 50 | > 50 | 8.67 | 38.6 | 4.19 | 43.7 |  |  | 3.07 | 22.5 | > 50 | 8.45 | > 50 | 25.6 | 17.7 | > 50
16 | CC(N)(/C=C/c1ccccc1)C(=O)O (stereo not drawn) |  | > 100 |  | > 100 |  | > 100 |  | > 100 |  | > 100 |  | > 100 |  |  | > 100 |  |  | > 100 |  | 
17 | O=c1[nH]c(=O)c2cc3cc(C4CC(O)C(CO)O4)ccc3cc2[nH]1 (stereo not drawn) | 8.48 | 67 | > 100 | > 100 | > 100 | > 100 |  |  | > 100 | > 100 | > 100 | > 100 | > 100 | 1.7 | > 100 | 34.5 | > 100 | > 100 | > 100 | > 100
